Measurements taken from patent EP1501797B1, “3-(SUBSTITUTED AMINO)-1H-INDOLE-2-CARBOXYLIC ACID ESTER AND 3-(SUBSTITUTED AMINO)-BENZO[B]THIOPHENE-2-CARBOXYLIC ACID ESTER DERIVATIVES AS INTERLEUKIN-4 GENE EXPRESSION INHIBITORS” (Aventis Pharmaceuticals Inc., priority 2002, dated 2003).
Several values for one entry are separate records, joined by “and”; a condition that tells them apart may be missing. Equal entries are not always repeated.

Legend:
[1] = tested on: IL-13; experiment: Human primary Th2 cells, anti-CD3/anti-CD28 activated, IL-13 ELISA; type: cell-based
Protocol: Briefly, CD4^+CD45RA^+ T cells, isolated from donor peripheral blood mononuclear cells of healthy donors, are educated in the presence of anti-CD3/CD28 antibodies and various growth factors to obtain either a Thl-like or Th2-like phenotypes as determined by the known cytokine profiles of these two cell types.
Peripheral blood mononuclear cells (PBMC) are prepared from human blood by Ficoll-Hypacque (Pharmacia). The cells are washed two times in Hanks balanced salt solution (HBSS) and counted.
Naive T cells (CD4^+/CD45RA ) are prepared by negative selection method using following antibodies and Dynabeads: anti-CD8, anti-HLA-DR, (where HLA means human leucocyte antigen) anti-CD14, anti-CD16, anti-CD19, anti-CD45RO antibodies (all from R&D Systems, 1-2 µg/ml) are added to the cells, and the cells are kept on ice for 30 min. The cells are washed two times in HBSS, and goat anti- mouse Ig-beads, (bead:target ratio, 5:1) are added. The cells and beads are slowly rotated at 4°C for 20 min. (following the protocol supplied from Dynal). The supernatant is removed and fresh goat anti-mouse Ig-beads are added to the supernatant, which is slowly rotated at 4°C for 20 min. The cells are counted and phenotypically characterized by flow cytometric analysis.
CD4^+/CD45RA^+ cells at a density of 10^6/ml in RPMI, is prepared and added to RPMI medium containing 10% Hyclone serum/ glutamine and 1-2 µg/ml anti-CD28 Ab. The cells are split in two aliquots. For Th1 cells: anti-IL-4 Ab (1-2 µg/ml), IFN-γ (1 µg/ml, or 5000 units/ml) are added to the wells. For Th2 cells: IL-4 (100-200 ng/ml), anti-IFN-γ neutralizing Ab (1-2 µg/ml), anti-IL-12 neutralizing Ab (1-2 µg/ml) are added into the wells. […] The cells are transferred to fresh wells and grown in 200 units/ml IL-2 for 2 weeks by feeding them every other day with IL-2 containing medium and splitting the cultures 1:2 or 1:3 as needed. The degree of polarization is determined by intracellular staining of cells with anti-IFN-γ and anti-IL-4 antibodies from Pharmingen, and using flow cytometry from Becton Dickinson (BD), according to manufacturers description. The cells are stimulated with PHA and alloantigens at day 14 and 28 as described below. Eight days after the second allostimulation the cells can be used for compound screening or frozen for future use. For compound testing, large quantities of Th1 and Th2 cells derived from a given donor (NYTh1 and NYTh2) were expanded and frozen as aliquots in liquid nitrogen. The cells are thawed and cultured as and when needed. The thawed cells are stimulated with alloantigen/PHA combination. The cells are used for compound screening after 8-10 days in culture.
Re-stimulation by allogeneic cells: Human PBMCs, to be used as alloantigens, are isolated from freshly drawn blood by Ficoll separation. […] Cells are counted and diluted to a final concentration of 2 x 10^6/ml in medium containing 10 µg/ml PHA and 200 units/ml IL-2.
Ninetysix well Falcon tissue culture plates (Fisher Scientific) are coated with 100 microliters per well of 10 µg/ml anti-CD3 (PharMingen) antibody in phosphate buffered saline (PBS) and stored at 4°C one day before the experiment.
On the day of assay, anti-CD3 antibody coated plates are washed with PBS once to remove all soluble anti-CD3 antibody. […] All compounds and controls are assayed in triplicates.

[2] = tested on: Anti-OVA IgE; experiment: OVA induced allergen specific IgE in mice; type: in vivo; details: bled at day 15, vehicle 150.8
Protocol: Female mice (5-8 week age, Balb/c, Charles River) were used in this study. Ovalbumin (Sigma) was adsorbed to Aluminum Hydroxide Adsorptive Gel, Inter, and injected 10 µg/0.2ml/mouse intraperitoneally on experimental day 0 and day 7. […] They were bled at day 15. Serum ovalbumin specific IgE levels were determined by standard ELISA using a goat anti-mouse IgE antibody labeled with alkaline phosphatase. The anti-OVA titers were determined by making serial dilutions of the test sera and comparing with vehicle control.

[3] = tested on: IgG2a Anti-DNP Antibody; experiment: In vivo model of humoral immunity in mice (DNP-KLH), IgG2a anti-DNP antibody
Protocol: Female Balb/c mice, each weighing approximately 20 to 25 grams each, aged 5 to 8 weeks are used. Each experiment uses 30 mice.
The antigen for immunization is 2,4-dinitrophenyl (DNP) or 2,4,6-trinitrophenyl (TNP) conjugated to keyhole limpet haemocyanin (KLH). The antigen (100 µg/mouse) is adsorbed to an adjuvant (colloidal aluminum hydroxide) and given i.p. to animal in a total volume of 0.2-0.3 ml.
Animals are randomly divided into 5 groups of 6 mice each. Group 1 is a positive control group, Groups 2, 3, and 4 are test compound groups, and Group 5 is a vehicle control group. Compounds may be given by i.n., i.p., p.o., s.c., i.m. or i.v. administration. […] On day 8 after the immunization, mice are bled by cardiac puncture under anesthesia (isoflurane), and the serum samples are stored at -20°C until required for antibody analysis. The anesthetized animals are euthanized with overdosage of sodium pentobarbital at the end of experiment. Statistical analysis of the data are performed using ANOVA.
Mice are immunized with a hapten carrier conjugate, DNP-KLH, and anti-DNP antibody levels are determined in a isotype specific manner as described above. […]

O=C(O)c1[nH]c2ccccc2c1Nc1ccncc1 [Example 28, 3-(4-Pyridinylamino)-1H-indole-2-carboxylic acid]
activity at 0.01 µM ([1]; Homo sapiens, 0.01 µM, 48 hr, read-out: IL-13 (% control) mean): 91%
activity at 0.03 µM ([1]; Homo sapiens, 0.03 µM, 48 hr, read-out: IL-13 (% control) mean): 86.4%
activity at 0.1 µM ([1]; Homo sapiens, 0.1 µM, 48 hr, read-out: IL-13 (% control) mean): 82.3%
activity at 0.3 µM ([1]; Homo sapiens, 0.3 µM, 48 hr, read-out: IL-13 (% control) mean): 80.6%
activity at 1 µM ([1]; Homo sapiens, 1 µM, 48 hr, read-out: IL-13 (% control) mean): 75.2%
activity at 3 µM ([1]; Homo sapiens, 3 µM, 48 hr, read-out: IL-13 (% control) mean): 73.4%
activity at 10 µM ([1]; Homo sapiens, 10 µM, 48 hr, read-out: IL-13 (% control) mean): 68.4%
IC50 ([1]; Human primary Th2 cells, combined data from 10 different experiments): ~10 µM
Anti-OVA IgE ([2]; 3 mg/kg intraperitoneally once a day from day 6 to day 14): 41.8
Anti-OVA IgE ([2]; 10 mg/kg intraperitoneally once a day from day 6 to day 14): 45.6
IgG2a Anti-DNP Antibody Titer ([3]; individual animals 1-6, dose not stated): 30.59 and 38.60 and 14.09 and 17.45 and 30.21 and 27.98
IgG2a Anti-DNP Antibody Titer Mean+/-SE ([3]; vehicle 30.47 +/-2.37, dose not stated): 26.49 +/-3.72
IgG2a Anti-DNP Antibody Titer Inhibition ([3]; versus vehicle): 13%
